Data taken from patent publication US10413559B2, “Method for treating demyelinating disease” (OCHANOMIZU UNIVERSITY, priority 2013, dated 2019).

Columns and labels:
Format in all cases: in vivo, C57BL/6j mice
[1] = test system: demyelination model mice (0.2% cuprizone), corpus callosum; assay: Histological staining (Black Gold II) of corpus callosum and evaluation of demyelination (Example 2); conditions: intraperitoneal 1.6 mg/kg/day for 5 weeks, FIG. 3, FIG. 4
Excerpt: 10-week-old male C57BL/6j mice (Tokyo Laboratory Animals Science Co., Ltd., Tokyo, Japan) were fed by the discretionary intake of a mash feed (CLEA Japan, Inc.) that contained 0.2% cuprizone (biscyclohexanone oxalyl hydrazone; Merck KGaA, Darmstadt, Germany) for 5 weeks until demyelination progressed most, so as to produce demyelination model mice involving demyelination caused by oligodendrocyte-specific cell death. To obtain tissues to be used for histological analysis, a mouse was subjected to perfusion fixation through the heart with 4% paraformaldehyde, and the resulting brain tissues were then excised from the mouse. Thereafter, the tissues were immobilized and infiltrated with 30% sucrose. Thereafter, a frozen tissue block was prepared and was then sliced in a cryostat. The cPA used in the experiment was the same cPA (16:0) as that used in Example 1, and the carba-cPA was 2 ccPA (16:1). The cPA and 2 ccPA were chemically purified (Biochimica et Biophysica Acta, Emi Nozaki 2011), and were then dissolved in a 0.9% saline. […] For the analysis of the level of myelin, using Image J 1.46r software, the stained level in the corpus callosum area was measured, and the demyelination level was then evaluated, while setting the control as 100%.

[2] = test system: demyelination model mice (0.2% cuprizone), corpus callosum; assay: Electron microscope observation of myelin structure in corpus callosum; conditions: intraperitoneal 1.6 mg/kg/day for 5 weeks, FIG. 5
Excerpt: 10-week-old male C57BL/6j mice (Tokyo Laboratory Animals Science Co., Ltd., Tokyo, Japan) were fed by the discretionary intake of a mash feed (CLEA Japan, Inc.) that contained 0.2% cuprizone (biscyclohexanone oxalyl hydrazone; Merck KGaA, Darmstadt, Germany) for 5 weeks until demyelination progressed most, so as to produce demyelination model mice involving demyelination caused by oligodendrocyte-specific cell death.
The cPA used in the experiment was the same cPA (16:0) as that used in Example 1, and the carba-cPA was 2 ccPA (16:1). The cPA and 2 ccPA were chemically purified (Biochimica et Biophysica Acta, Emi Nozaki 2011), and were then dissolved in a 0.9% saline. The cPA and 2 ccPA were continuously administered to mice via intraperitoneal administration for 5 weeks (1.6 mg/kg/day), at the same time with administration of cuprizone. Control mice were fed with a normal mash feed, and a normal saline was continuously administered to the control mice via intraperitoneal administration for 5 weeks.
Five weeks after administration of cuprizone, mice were subjected to perfusion fixation with 4% paraformaldehyde, and the brain was then collected from each mouse. Thereafter, corpus callosum tissues were removed from the brain, were then pre-fixed with 2.5% glutaraldehyde fixative, and were then washed with a 0.1 M cacodylate buffer. […]

[3] = test system: demyelination model mice (0.2% cuprizone); assay: Test of motor function impairment using rotarod; conditions: intraperitoneal 1.6 mg/kg/day for 5 weeks, 28 rpm, 300 seconds, FIG. 9, FIG. 10
Excerpt: 10-week-old male C57BL/6j mice (Tokyo Laboratory Animals Science Co., Ltd., Tokyo, Japan) were fed by the discretionary intake of a mash feed (CLEA Japan, Inc.) that contained 0.2% cuprizone (biscyclohexanone oxalyl hydrazone; Merck KGaA, Darmstadt, Germany) for 5 weeks until demyelination progressed most, so as to produce demyelination model mice involving demyelination caused by oligodendrocyte-specific cell death. The cPA used in the experiment was the same cPA (16:0) as that used in Example 1, and the carba-cPA was 2 ccPA (16:1). The cPA and 2 ccPA were chemically purified (Biochimica et Biophysica Acta, Emi Nozaki 2011), and were then dissolved in a 0.9% saline. […] The locomotion time on the rod was evaluated by measuring the time required for the mice to fall from the rotating rod within a record time of 300 seconds. Moreover, even after the mice had fallen from the rod, they were forced to continue their activity immediately after the falling, so that a total number of the activities from falling from the rod to holding on to the rod for 300 seconds (a number of falls and flips) was measured and evaluated. The data of the test of motor function impairment were analyzed according to a non-parametric method using a Kruskal-Wallis test. All of other data were analyzed according to a one-way ANOVA method using a Newman-Keulis test. […]

CCCCCCCCCCCCCCCC(=O)OCC1COP(=O)(O)O1 (stereo not drawn) [cPA] was tested, and the “demyelination level in corpus callosum (Black Gold II staining)” value [1] was “demyelination is suppressed”, the “demyelination by electron microscope observation of myelin structure” value [2] was “demyelination is suppressed” and the “motor function impairment (rotarod)” value [3] was “motor function impairment is improved”.
